This is an account of results in patent publication US20220105096A1, “INHIBITORS OF HUMAN IMMUNODEFICIENCY VIRUS REPLICATION” (ViiV HEALTHCARE UK (NO.5) LIMITED, priority 2019, published 2022).

For one series, the system named is human hepatocytes. Nature of the series: Metabolism in human hepatocytes. It is filed as in vitro ADME. The note with it: 0.5 μM. Here is the method:
Cryopreserved hepatocytes in suspension from human, monkey, dog, rat and mouse were thawed and diluted in pre-warmed William's Medium E (pH 7.4). Aliquots of the hepatocyte suspension were added to test compound working solutions prepared in pre-warmed William's Medium E (pH 7.4) to achieve final concentrations of 0.5 μM in 0.5×10^6 cells per milliliter and ≤0.25% DMSO. These samples were incubated at 37° C. with 5% carbon dioxide and shaking. The incubations were performed in singlet. At time points 0, 10, 30, 60, 120 and 240 minutes, a 50 μL aliquot of the incubation mixtures was removed and added to a 100 μL solution of acetonitrile containing internal standard and the mixture was then centrifuged at 4° C. and 3500 rpm for 15 minutes. Following completion of the experiment, samples were analyzed by LC-MS/MS. Metabolic stability results were reported as a percentage of parent test compound remaining. This percentage is calculated by dividing the LCMS peak area of test compound following incubation (tx) by the LCMS peak area of test compound at time-zero (t0) just prior to incubation.
The elimination rate constant (k, min^−1) is calculated using nonlinear regression fitting with the following equation: […]
where: C0 is the initial concentration represented as the peak area ratio (test compound peak area/internal standard peak area); Ct is the concentration at t represented as the area ratio (test compound peak area/internal standard peak area); e is the base of the natural logarithm t is the time (min); k is the elimination rate constant (min^−1). The half-life (t1/2, min) is calculated using the following equation: […]
where: k is the elimination rate constant (min^−1). The in vitro intrinsic clearance (CLint, mL/min/million cells) is calculated using the following equation: […]
where: t1/2 is the half-life; n is the number of cells per mL.

Series [1] can be described thus: Pharmacokinetic parameters in vivo, dog. The arrangement: species or system Beagle Dogs. How it is done:
PK was investigated in male CD1 mice, Wistar Han Rats, Cynomolgus monkeys, and Beagle Dogs. Two groups of animals (N=3 per group) received test compound either as an intravenous (IV) dose (1 mg/kg) or by oral gavage (5 mg/kg solution and suspension). Drug was formulated in 90% PEG 400, 10% ethanol for IV administration and in 90% PEG400, 5% ethanol for PO administration. Blood samples were collected at 0.167, 0.25, 0.5, 0.75, 1, 2, 3, 5, 7, 24, 48, 72 and 96 h post dose for IV; 0.25, 0.5, 0.75, 1, 2, 3, 5, 7, 24, 48, 72 and 96 h post dose for oral. Blood samples were collected into K3EDTA tubes and centrifuged at 1500 to 2000×g to obtain plasma. Plasma samples were stored at −20° C. until analysis by LC-MS/MS. All […] samples were injected on an Exion LC 4500 Triple Quad™ LC-MS/MS system. The analytical column used was a Phenomenex C18 (C18, 4.6 mm×50 mm, 5 μm) maintained at room temperature. Mobile Phase A consisted of 0.1% (v/v) formic acid in MilliQ water. Mobile Phase B consisted of 100% methanol. The flow rate was 1 mL/min. […] All LC-MS/MS analysis parameters are captured electronically in the raw data files. The PK parameters were obtained by non-compartmental analysis of plasma concentration vs time data (Phoenix WinNonlin v8). The peak concentration (Cmax) and time for Cmax (Tmax) were recorded directly from experimental observations. The area under the curve from time zero to the last sampling time [AUC0-T] and the area under the curve from time zero to infinity [AUCINF] were calculated using a combination of linear and log trapezoidal summations. The total plasma clearance (CLTp), steady-state volume of distribution (Vss), apparent elimination half-life (T-HALF), and mean residence time (MRT) were estimated after IV administration. Estimations of AUC and T-HALF were made using a minimum of three timepoints with quantifiable concentrations. The absolute oral bioavailability (F) was estimated as the ratio of dose-normalized AUC values following oral and IV doses.

A further series relates to CYP2B6. Nature of the series: Cytochrome P450 (CYP2B6) induction in cryopreserved human hepatocytes. The following applies: hepatocytes from three individual donors, 0.12 to 30 μM, 48 hours. It is filed as cell-based. Here is the method: Following the guidance of the FDA (“In Vitro Metabolism- and Transporter-Mediated Drug-Drug Interaction Studies Guidance for Industry”), the potential of Example 1 and Example 60.2 to induce CYP2B6 expression was tested using hepatocytes from the same three individual donors (rather than pooled donors), and changes in enzyme mRNA levels were evaluated using the “fold-change method”. In this test a fold-change in mRNA levels less than 2-fold is considered a negative finding, while a change ≥2-fold is considered a positive finding.
Compounds were tested in a CYP induction assay using inducible cryopreserved human primary hepatocytes from three donors to determine the potential to cause induction (as measured by an increase in mRNA transcription) of CYP2B6. […] At the end of the incubation, the integrity of cell monolayers, cell density and viability were evaluated to assess cytotoxicity effects. […] It was then used in reverse transcription polymerase chain reactions (RT-PCR) to quantify the amount of specific mRNA species encoding human CYP3A4, CYP2B6, and CYP1A2 genes.
The induction potential of test compounds and controls was compared to known CYP2B6 inducer Phenobarbital (1000 μM). The results of this assay are expressed as fold induction. […] The cytotoxicity was also assessed in parallel to avoid false positive CYP induction results due to cytotoxicity. […]

[2] abbreviates: Beagle, plasma, Dog, IV 1 mg/kg.

One may read the clearance as the rate of elimination divided by the concentration. As usually defined, the half-life is the time needed for the level to fall by half in the phase considered. The bioavailability is the share of a dose that reaches the circulation, judged against a reference dose that is usually intravenous. Regarding `Cn1nc(NS(C)(=O)=O)c2c(Cl)ccc(-n3c([C@H](Cc4cc(F)cc(F)c4)NC(=O)Cn4nc(C(F)F)c5c4C(F)(F)[C@@H]4C[C@H]54)nc4nc(OCCC(C)(F)F)ccc4c3=O)c21` (atropisomer, axis not shown; (P)) [Example 1, N—((S)-1-((3P)-3-(4-chloro-1-methyl-3-(methylsulfonamido)-1H-indazol-7-yl)-7-(3,3-difluorobutoxy)-4-oxo-3,4-dihydropyrido[2,3-d]pyrimidin-2-yl)-2-(3,5-difluorophenyl)ethyl)-2-((3bS,4aR)-3-(difluoromethyl)-5,5-difluoro-3b,4,4a,5-tetrahydro-1H-cyclopropa[3,4]cyclopenta[1,2-c]pyrazol-1-yl)acetamide], the “intrinsic clearance in human hepatocytes” value in the series with human hepatocytes is “less than 0.2 mL/min/g liver”. Also, in the series with human hepatocytes (0.5×10^6 cells per milliliter), the “half-life in human hepatocytes” value is “could not be measured”. In addition, the “parent remaining after incubation in human hepatocytes” value in the series on human hepatocytes (240 minute incubation) is recorded as “no metabolism was measurable”. Also, in series [1] (setting [2]), the clearance is 1.16 mL/min/kg and the half-life is 744 min. Also, in series [1] (Beagle, plasma, Dog, IV 1 mg/kg, read-out: Vss), the Vd stood at 0.88 L/kg. In addition, in series [1] (Beagle, plasma, Dog, oral gavage 5 mg/kg solution vs IV 1 mg/kg), the bioavailability came out at 34.6%. Further, the “half-life in circulation higher than Example 60.2” value in series [1] (dog) is recorded as “five-fold”. Besides, the “clearance improved relative to Example 60.2” value in series [1] (dog, IV) is listed as “seven-fold”. The “CYP2B6 induction finding (mRNA fold-change method)” value in the series on CYP2B6 is given as “negative finding (a fold-change in mRNA levels less than 2-fold is considered a negative finding)”.
